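Tested at 5 concentrations; 48 h exposure; 96-well plates; endpoints linearly interpolated, else capped at highest concentration. GI50 = concentration required for 50% inhibition of growth.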 Calls of active or inactive are those of the source. Cut-off read from the data, not from the text of the source: active = GI50 up to about 1.1 µM and inactive = higher.
Experiments:
Assay in all cases: NCI-60 cell line screen, 48 h
[1] = system: 786-0
[2] = system: A498
[3] = system: A549
[4] = system: ACHN
[5] = system: BT-549
[6] = system: CAKI-1
[7] = system: CCRF-CEM
[8] = system: COLO 205
[9] = system: DU-145
[10] = system: EKVX
[11] = system: HCC 2998
[12] = system: HCT-116
[13] = system: HCT-15
[14] = system: HL-60
[15] = system: HOP-62
[16] = system: HOP-92
[17] = system: HT-29
[18] = system: Hs-578T
[19] = system: IGROV-1
[20] = system: K562
[21] = system: KM12
[22] = system: LOX IMVI
[23] = system: M14
[24] = system: MCF7
[25] = system: MDA-MB-231
[26] = system: MDA-MB-435
[27] = system: MDA-N
[28] = system: MOLT-4
[29] = system: Malme-3M
[30] = system: NCI-H226
[31] = system: NCI-H23
[32] = system: NCI-H460
[33] = system: NCI-H522
[34] = system: NCI/ADR-RES
[35] = system: OVCAR-3
[36] = system: OVCAR-4
[37] = system: OVCAR-5
[38] = system: OVCAR-8
[39] = system: PC-3
[40] = system: RPMI-8226
[41] = system: RXF 393
[42] = system: SF-268
[43] = system: SF-295
[44] = system: SF-539
[45] = system: SK-MEL-28
[46] = system: SK-MEL-2
[47] = system: SK-MEL-5
[48] = system: SK-OV-3
[49] = system: SN12C
[50] = system: SNB-19
[51] = system: SNB-75
[52] = system: SR
[53] = system: SW-620
[54] = system: T47D
[55] = system: TK-10
[56] = system: U-251
[57] = system: UACC-257
[58] = system: UACC-62
[59] = system: UO-31

Measured: GI50

CC(=O)O[C@H]1CC[C@@]2(C)C(=CC[C@H]3[C@@H]4C[C@H](N5CCN(C)CC5)[C@H](OC(C)=O)[C@@]4(C)CC[C@@H]32)C1
inactive: [1] 19.2 µM | [2] 20.9 µM | [3] 18.5 µM | [4] 41.9 µM | [5] 17.8 µM | [6] 33.3 µM | [7] 3.98 µM | [8] 17.1 µM | [9] > 100 µM | [10] 20.7 µM | [11] 15.5 µM | [12] 12.9 µM | [14] 2.44 µM | [15] 25.1 µM | [16] 25.4 µM | [17] 3.6 µM | [18] 26.2 µM | [19] 19 µM | [20] 1.91 µM | [21] 16.7 µM | [22] 3.03 µM | [23] 3.27 µM | [24] 5.64 µM | [25] 16.7 µM | [26] 5.08 µM | [27] 12.1 µM | [28] 4.39 µM | [29] 11.7 µM | [30] 28.9 µM | [31] 22.9 µM | [32] 21.6 µM | [33] 18.8 µM | [34] 19.6 µM | [35] 8.47 µM | [36] 17.6 µM | [37] 26.1 µM | [38] 15.6 µM | [39] 16.8 µM | [40] 4.39 µM | [41] 19.1 µM | [42] 20 µM | [43] 22.1 µM | [44] 4.26 µM | [45] 12.5 µM | [46] 18 µM | [47] 3.53 µM | [48] > 47.2 µM | [49] 24 µM | [50] 21.9 µM | [51] 24.4 µM | [52] 4.68 µM | [53] 15.5 µM | [54] 17.8 µM | [55] > 100 µM | [56] 19.7 µM | [57] 6.17 µM | [58] 11.7 µM | [59] > 53 µM
13 µM: [13]

CC[C@@]1(O)C(=O)OCc2c1cc1n(c2=O)Cc2c-1nc1ccccc1c2/C=N\NC(=O)C(N)Cc1c[nH]cn1 (stereo partly drawn)
inactive: [5] 3.45 µM | [8] 8.39 µM | [10] 7.45 µM | [11] 1.51 µM | [17] 2.1 µM | [18] > 64.9 µM | [19] 3.75 µM | [21] 2.38 µM | [25] 3.4 µM | [26] 1.37 µM | [27] 1.9 µM | [29] 2.53 µM | [35] 3.95 µM | [36] 4.41 µM | [37] 3.56 µM | [45] 1.26 µM | [46] 7.74 µM | [55] 13.3 µM | [57] 2.68 µM
1.34 µM: [13]
active: [1] 0.213 µM | [2] 0.857 µM | [3] 0.452 µM | [4] 0.043 µM | [6] 0.147 µM | [7] 0.0214 µM | [9] 0.181 µM | [12] 0.43 µM | [14] 0.164 µM | [15] 0.0524 µM | [16] 1.1 µM | [20] 0.468 µM | [22] 0.131 µM | [23] 0.324 µM | [24] 0.0885 µM | [28] 0.0259 µM | [30] 0.571 µM | [31] 0.111 µM | [32] 0.0832 µM | [33] 0.372 µM | [34] 0.41 µM | [38] 0.184 µM | [39] 0.644 µM | [40] 0.356 µM | [41] 0.861 µM | [42] 0.0545 µM | [43] 0.132 µM | [44] 0.0528 µM | [47] 0.222 µM | [48] 0.234 µM | [49] 0.0673 µM | [50] 0.0908 µM | [51] 0.067 µM | [52] 0.0101 µM | [53] 0.148 µM | [54] 0.158 µM | [56] 0.0776 µM | [58] 0.0723 µM | [59] 0.348 µM

Source: ChEMBL document CHEMBL1201862, “PubChem BioAssay data set” (2004)
